{"source": "patent US20060229265A1", "about": "“Nicotinamide riboside and analogues thereof” (priority 2005, published 2006)", "key": {"Swiss Albino mice": {"test_system": "Swiss Albino mice", "test": "7 day repeat dose tolerance study in mice", "type": "in vivo", "conditions": "1000, 500 or 300 mg/kg in PBS, IP, 7 consecutive days; male mice", "experimental": "Groups of male Swiss Albino mice (6 mice per dosing group) were dosed with either NMN dissolved in phosphate buffered saline (PBS) at 1000 mg/kg, 500 mg/kg, or 300 mg/kg or vehicle control (PBS) via intraperitoneal injection (IP) for 7 consecutive days. The evaluation criteria used to assess toxicity included daily clinical observations and weight gain."}, "[1]": {"test": "Stability in rat plasma / on extraction with organic solvent (LC/MS)", "type": "in vitro ADME", "experimental": "Duplicate sets of standard curves of triacetoxy nicotinamide riboside, NMN and nicotinamide riboside in rat plasma were extracted by protein precipitation. Due to sensitivities of compounds to the organic solvent used in extraction, two separate extractions were performed on the standards. The standards were extracted with ACN to obtain triacetoxy nicotinamide riboside and nicotinamide riboside standards, and extracted with MeOH to obtain NMN standards. The standards were analyzed through LC/MS. Due to varying chromatographic properties of the compounds, two separate methods and columns were employed to resolve the compounds. The triacetoxy nicotinamide riboside standards (ACN extraction) were run on an YMC ODS-AQ 2.0×100 mm column, while the NMN standards (MeOH extraction) and nicotinamide riboside standards (ACN extraction) were run on an YMC ODS-AQ 4.5×150 mm column. The resolution procedures were as follows: • 50 uL aliquots of each sample were taken in replicates of four. • Added 200 uL of organic solvent to each sample. • Vortexed samples and centrifuged at 5000 g's for 10 minutes. • Transferred supernatant to new tubes (200 uL), and dried down in Speed-Vac. • Reconstituted samples in 200 uL 95:5 ddH2O:ACN, and vortexed 10 minutes on platform vortexer at setting 10. […] Though the curves may be quantitated separately, they cannot be quantitated together. […]"}, "[2]": {"test_system": "retinal ganglion cells (RGCs)", "test": "Neuroprotection of retinal ganglion cells in EAE mice with acute optic neuritis (intravitreal treatment)", "conditions": "for RGC numbers (FG-labeled cells in 12 standardized fields per retina): EAE eyes with optic neuritis; for Neuroprotection for RGCs during acute optic neuritis in EAE: dose-dependent manner", "experimental": "Study outline: The neuroprotective effects of nicotinamide riboside were examined in EAE mice with optic neuritis. […] To induce EAE, mice were immunized several days later with 300 μg PLP emulsified in complete Freund's adjuvant (CFA), and control mice (without EAE) were mock-immunized with phosphate buffered saline (PBS) in CFA. All mice received 200 ng intraperitoneal pertussis toxin (PT) on the day of immunization (day 0) and again on day 2.\nEyes were treated with nicotinamide riboside by intravitreal (ivt) injections with a volume of 0.8 μl/injection of a stock solution of either 0.1 M or 0.4 M nicotinamide riboside in PBS (Groups 2, 4 and 5). […] Treament with nicotinamide riboside, as well as PBS control injections, were given ivt on days 0, 4, 7 and 11. Mice were scored daily for clinical EAE, and were sacrificed on day 14 by overdose with ketamine and xylazine.\nRetinas were dissected and whole-mounted for fluorescent microscopy. RGC numbers were quantified by counting FG-labeled cells in 12 standardized fields in each retina. Optic nerves were dissected and processed for histology. Cut sections stained by H & E were evaluated for the presence of inflammatory cells to determine acute optic neuritis. RGCs were compared between PBS-treated and nicotinamide riboside-treated eyes with optic neuritis to determine whether nicotinamide riboside prevents loss of neurons."}}, "data": [{"compound": "NC(=O)c1ccc[n+]([C@@H]2O[C@H](COP(=O)([O-])O)[C@@H](O)[C@H]2O)c1", "note": "[NMN, nicotinamide mononucleotide]", "values": [{"measurement": "Clinical signs of toxicity", "setting": "Swiss Albino mice", "result": "None of the animals showed clinical signs of toxicity"}, {"measurement": "Weight gain by study termination", "setting": "Swiss Albino mice", "result": "All animals in the study gained weight"}]}, {"compound": "CC(=O)OCC1OC([n+]2cccc(C(N)=O)c2)C(OC(C)=O)C1OC(C)=O", "note": "(stereo not shown) [Triacetoxy nicotinamide riboside, triacetoxy nicotinamide riboside]", "values": [{"measurement": "Hydrolysis on extraction from rat plasma", "setting": "[1]; extracted with ACN, compared with MeOH", "result": "less strongly so"}, {"measurement": "Hydrolysis on extraction from rat plasma", "setting": "[1]; extracted with MeOH", "result": "hydrolyzes into nicotinamide riboside"}]}, {"compound": "NC(=O)c1ccc[n+]([C@@H]2O[C@H](CO)[C@@H](O)[C@H]2O)c1", "note": "[nicotinamide riboside]", "values": [{"measurement": "RGC numbers (FG-labeled cells in 12 standardized fields per retina)", "setting": "[2]; 100 mM nicotinamide riboside stock, 0.8 μl ivt on days 0, 4, 7, 11 (estimated ocular 19 mM), day 14, Group 4, PBS-treated 268±59, control 691±81", "result": "505±36", "unit": "RGCs"}, {"measurement": "RGC numbers (FG-labeled cells in 12 standardized fields per retina)", "setting": "[2]; 400 mM nicotinamide riboside stock, 0.8 μl ivt on days 0, 4, 7, 11 (estimated ocular 76 mM), day 14, Group 5, p<0.01", "result": "710±67", "unit": "RGCs"}, {"measurement": "Incidence of optic neuritis, treated mice vs. controls", "setting": "[2]; EAE mice, ivt treatment", "result": "did not differ"}, {"measurement": "Inflammatory cell infiltration (optic nerve)", "setting": "[2]; EAE mice, ivt treatment", "result": "does not prevent"}, {"measurement": "Clinical EAE, treated mice vs. controls", "setting": "[2]; EAE mice, ivt treatment, scored daily", "result": "did not differ"}, {"measurement": "Neuroprotection for RGCs during acute optic neuritis in EAE", "setting": "[2]", "result": "effective"}, {"measurement": "Neuroprotection for RGCs during acute optic neuritis in EAE", "setting": "[2]; listed as Nicotinamide riboside", "result": "neuroprotective"}, {"measurement": "Toxicity to RGCs", "setting": "[2]; mouse, in vivo", "result": "not toxic"}, {"measurement": "Difference in RGC numbers between control eyes and non-EAE eyes treated", "setting": "[2]; non-EAE eyes, ivt treatment (Group 2) vs. untreated control (Group 1), day 14", "result": "no difference"}]}]}
